Where two headings read alike, the source gives them in different places.
Legend:
DRG neurons = assay: Neurite outgrowth of adult DRG neurons on CNS myelin spots; format: cell-based, mice; details: chosen from dose-response curve of neurite outgrowth assays of DRGs on CNS myelin
Procedure: (§1) Neurite outgrowth from neurons was performed in DRG and CGN cultures 1-5 days after growth. For DRG assay on myelin spots, the center of each culture coverslip was spotted with 2 μl of purified CNS myelin (200 μg/ml), which contains a number of axon growth inhibitors (11). DRGs were dissected out from C57BL/6 mice aged 8-10 weeks. After incubation with collagenase and 0.25% trypsin, dissociated DRG neurons were plated onto plastic coverslips in 24-well plates and grown in culture medium as previously reported (25, 48). Primary CGN cultures were prepared from cerebelli of postnatal 7-9 day C57BL/6 mice as reported previously (25, 29).
(§2) After plating, dissociated neurons were treated with vehicle, RP (10 μg/ml), PAP1 (2.5 μg/ml), PAP2 (10 μg/ml), PAP3 ([…]), PAP4 (6.7 μg/ml) and PAP5 (5 μg/ml). The doses of PAPs were chosen based on the dose-response curve obtained from neurite outgrowth assays of DRGs on CNS myelin. Neurons were fixed 5 days (DRGs) or 24 hrs (CGNs) after plating and stained for Tuj1. Images of each culture were captured with a Nikon image collecting system and neurite outgrowth was quantified with Photoshop and NIH image software (25). The total neurite length of DRGs per myelin spot was determined from 5-8 representative experiments. The neurite length of CGNs was measured as previously reported (25, 29). To determine the cellular distribution of PTEN, DRGs were stained with anti-PTEN and anti-Tuj1l antibodies in selected coverslips.

PTEN = molecular target: T1, PTEN (Homo sapiens, UniProt P60484); assay: PTEN peptide binding assay in COS-7 cells; details: biotinylated peptides 15 μM, 1 hour; ABC-DAB, 405 nm; compared to BioRP
T1 construct: host or cells: COS-7
Procedure: COS-7 cells were cultured as previously reported (29). Forty-eight hrs after transfection, cells were incubated with purified biotinylated RP or PAPs 1-4 (15 μM) for 1 hour. Following 3 washes with PBS and fixation with 4% formaldehyde, COS-7 cells were incubated in ABC and the PAP binding signals were visualized with ABC-DAB based color reactions. The intensity of reaction color in multiple wells was read with a 96-well plate reader at 405 nm. The binding experiments were carried out in 6-12 replicates.

[1] = tested on: mice with T7 dorsal over-hemisection; assay: Locomotor recovery after T7 dorsal over-hemisection SCI (BMS, grid walk, footprint); format: in vivo; details: vs RP; for locomotor recovery, BMS scores: s.c. 71 μg/mouse/day, 14 days, 2-5 weeks after SCI
Procedure: (§3) Adult female C57BL/6 mice (9-10 weeks old) were deeply anesthetized with intramuscular ketamine (100 mg/kg) and intraperitoneal xylazine (15 mg/kg). A complete laminectomy was performed and the dorsal part of the spinal cord was fully exposed at T6 and T7 levels (31). A dorsal over-hemisection (1.0 mm) was performed at T7 with a 30 gauge needle and a pair of microscissors to completely sever dorsal part of the spinal cord as previously reported (29, 31). To study axon growth (FIG. 5-7), mice received daily subcutaneous injections of RP, PAP2 or PAP4 at 71 μg/mouse/day beginning two days after SCI for 14 successive days (29). Mice received BDA tracer injections into the motor cortex 3 weeks after SCI (31).
(§4) Mice were perfused 5 weeks after SCI and the spinal cord blocks around the lesion were processed for 5-HT and CST labeling. In brief, transverse sections (30 μm) 5-7 mm rostral to and caudal to the injury and parasagittal sections 4 mm rostral to and 4 mm caudal to lesion were processed for 5-HT-stained serotonergic fibers and BDA-labeled CST axons. To compare axon number among different groups, 5-HT axons were counted in the spinal cord 0-3.2 mm caudal to the lesion from all parasagittal sections in each animal. To determine functional recovery, locomotion recovery was evaluated during 5 weeks of survival by measuring the BMS two days and per week after SCI, and the grid walk performance and footprint 5 weeks after SCI. For axon quantification and behavioral analysis, 8, 9, and 9 mice were used in the RP, PAP2 and PAP4 groups, respectively.

[2] = tested on: mice with T7 dorsal over-hemisection; assay: Growth of 5-HT and CST fiber tracts after T7 dorsal over-hemisection SCI; format: in vivo; details: s.c. 71 μg/mouse/day, 5 weeks after SCI; for density of 5-HT fibers in the spinal cord 5-7 mm caudal to the lesion: 14 days from 2 days after SCI, vs RP; for CST sprouts immediately rostral to the lesion (parasagittal sections) / density of ectopic CST sprouts lateral to the dorsal CST, 5-7 mm rostral to the lesion / growth of CST sprouts caudal to the lesion: 14 days
Procedure: as §3, §4

CGNs = assay: Neurite outgrowth of cerebellar granular neurons (CGNs) on CNS myelin; format: cell-based, mice; details: 24 hrs after plating; myelin 50 μg/ml; compared to vehicle
Procedure: as §1
as §2, with “To determine the cellular distribution of PTEN, DRGs were stained with anti-PTEN and anti-Tuj1l antibodies in selected coverslips.” left out

SCI rats = details: cited from earlier work

T1 sequence (P60484 whole entry, species assumed): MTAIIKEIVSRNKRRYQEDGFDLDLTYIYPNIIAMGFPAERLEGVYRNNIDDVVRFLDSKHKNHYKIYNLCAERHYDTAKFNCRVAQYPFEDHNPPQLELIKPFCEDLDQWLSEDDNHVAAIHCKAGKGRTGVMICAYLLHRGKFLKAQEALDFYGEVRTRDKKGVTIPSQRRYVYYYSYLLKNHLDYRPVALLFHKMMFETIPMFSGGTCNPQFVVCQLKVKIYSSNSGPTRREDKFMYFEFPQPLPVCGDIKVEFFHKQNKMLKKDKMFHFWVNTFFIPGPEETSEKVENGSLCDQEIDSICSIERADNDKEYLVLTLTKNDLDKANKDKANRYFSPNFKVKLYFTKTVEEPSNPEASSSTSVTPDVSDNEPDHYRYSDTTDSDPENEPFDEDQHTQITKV

Row | Substance | Optimal dose (DRG neurons) [µg/mL] | peptide binding to COS-7 cells transfected with PTEN (PTEN) | locomotor recovery, BMS scores [1] | density of 5-HT fibers in the spinal cord 5-7 mm caudal to the lesion [2] | CST sprouts immediately rostral to the lesion (parasagittal sections) [2] | density of ectopic CST sprouts lateral to the dorsal CST, 5-7 mm rostral to the lesion [2] | growth of CST sprouts caudal to the lesion [2] | further results
1 | IHCKAGKGRTGVMIC [PAP3] | 5 | higher binding affinity than PAP2 | – | – | – | – | – | –
2 | KHKNHYKIYNLCAE [PAP2] | 10 | – | improve locomotor recovery | significantly increased | higher density | Increased density | A small number of CST sprouts grew into the distal spinal cord | –
3 | MTAIIKEIVSRNKRR [PAP1] | 2.5 | higher binding affinity than PAP2 | – | – | – | – | – | –
4 | PENEPFDEDQHSQITKV [PAP5] | 5 | – | – | – | – | – | – | neurite length of CGNs cultured on CNS myelin (CGNs): but not with PAP5, significantly increased
5 | TVEEPSNPEASSSTSVTPD [PAP4] | 5 | higher binding affinity than PAP2 | improve locomotor recovery | significantly increased | very high density | Increased density | terminated rostral to the lesion epicenter | stride length of the hindpaws ([1]; footprints 5 weeks after injury): enhanced stride length
6 | bisperoxovanadium [bpV] | – | – | – | – | – | – | – | functional recovery (SCI rats; intrathecal): improved functional recovery; functional recovery (SCI rats; systemic): improved functional recovery; levels of phosphorylated Akt and S6 in the lesioned spinal cord (SCI rats; systemic): elevated the levels of phosphorylated Akt and S6
